Test results as given in US20140363889A1, “METHOD FOR PRODUCING MULTIPOLAR CELL” (TOAGOSEI CO., LTD., priority 2011, published 2014).

Key:
Format in all cases: cell-based
[1] = system: human alveolar basal epithelial adenocarcinoma cells, A549; assay: Multipolarity-inducing activity assay 3 (A549 cells synchronized in G2 phase (or M phase)); settings: 10 μM peptide, number of M-phase cells 100
Experimental: Some of the sample peptides obtained in Example 1 were tested for multipolarity-inducing activity against target cultured tumor cells. As the tumor cells tested, cells forming a […] (human alveolar basal epithelial adenocarcinoma cells, A549) were used. The cell line was cultured in the same manner as Example 2 described above. The resulting cultured tumor cells were synchronized in the G2 phase (or M phase) in the same manner as Example 3 described above. Similarly to Examples 2 and 3 described above (the number of M-phase cells was 100 herein), the presence of multipolarity was observed by immunofluorescence under fluorescence microscope.

HeLa cell line (HeLa S3) [2] = assay: Multipolarity-inducing activity assay 1 (cells synchronized in G1 phase by double thymidine block); settings: 10 μM peptide, 6 hours incubation; for Multipolar level (%): % multipolar cells relative to M-phase cells; for Number of multipolar cells: count among the M-phase cells observed
Experimental: Some of the sample peptides obtained in Example 1 were tested for multipolarity-inducing activity against target cultured tumor cells. Details of the assay are as described below.
As the tumor cells tested, a HeLa cell line (HeLa S3) was used. The cell line was cultured beforehand in a DMEM medium (i.e. Dulbecco MEM medium (DMEM medium, a Gibco product) containing 10% fetal bovine serum (FBS, a Gibco product), 2 mM of L-glutamine, 50 unit/mL of penicillin, and 50 μg/mL of streptomycin), and seeded at about 3×10^4 cells per well in an 8-well slide glass. Thymidine was added to the culture medium to a final concentration of 2.5 mM. Incubation was carried out at 37° C. under 5% CO2 for 16 hours. The culture medium was exchanged to remove thymidine and incubation was carried out for 8 more hours. Subsequently, thymidine was added again to a final concentration of 2.5 mM and incubation was carried out for 16 hours.
By such double thymidine block, the cells being cultured were synchronized in the G1 phase of the cell cycle. After such synchronization treatment, the culture medium was exchanged to remove thymidine and incubation was carried out for 2 more hours. Subsequently, one of the sample peptides was added to each well. In this example, one of Samples 1, 4, 5, 7, 9 and 11 was added to a peptide concentration in the well of 10 μM.
After a sample peptide was added as described above, the 8-well slid glass was incubated under the aforementioned conditions for 6 hours.
After 6 hours of incubation, the presence of multipolarity was observed by immunofluorescence under fluorescence microscope. In particular, after 6 hours of incubation following the addition of a sample peptide, the cultured cells were subjected to nuclear staining with DAPI (4′,6-diamidino-2-phenylindole), and using α-tubulin as a marker for spindles, the cells were tested for the presence of tubulin (i.e. the presence of spindles) by immunofluorescence with an anti-tubulin antibody (primary antibody) to identify the tubulin and a fluorescent dye (ALEXA FLUOR(registered trademark) 555)-labeled secondary antibody to identify the primary antibody. In addition, using centrin-2 as a marker for centrosomes (centrioles), the cells were tested for the presence of centrin-2 (i.e. the presence of centrosomes) by immunofluorescence with an anti-centrin-2 antibody (primary antibody) to identify the centrin-2 and a fluorescent dye-labeled secondary antibody to identify the primary antibody.

HeLa cell line (HeLa S3) [3] = assay: Multipolarity-inducing activity assay 2 (cells synchronized in G2 phase (or M phase) by nocodazole); settings: 10 μM peptide, 4 hours with peptide + 2 hours without; for Multipolar level (%): % multipolar cells relative to M-phase cells; for Number of multipolar cells: count among 60 M-phase cells
Experimental: The same sample peptides as those used in Example 2 above were used and tested for multipolarity-inducing activity against cultured tumor cells synchronized in the G2 phase (or M phase). Details of the assay are as described below.
As the tumor cells tested, a HeLa cell line (HeLa S3) was used. The cell line was cultured under the same conditions as Example 2 and seeded at about 3×10^4 cells per well in an 8-well slide glass. Thymidine was added to the culture medium to a final concentration of 2.5 mM. Incubation was carried out at 37° C. under 5% CO2 for 18 hours. The culture medium was exchanged to remove thymidine and incubation was carried out for 6 more hours. Subsequently, nocodazole was added to a final concentration of 0.1 μg/mL and incubation was carried out for 16 hours. By such addition of nocodazole, the cells being cultured were synchronized in the G2 phase (M phase) of the cell cycle.
After the 16 hours of incubation, without exchanging the culture medium (i.e. with nocodazole being contained), one of the sample peptides was added to each well to a peptide concentration in the well of 10 μM and incubation was carried out for 4 hours. Subsequently, the culture medium was exchanged and incubation was continued for 2 more hours without nocodazole or the sample peptide.
After the 2 hours of incubation, in the same manner as Example 2, the presence of multipolarity was observed by immunofluorescence under fluorescence microscope.

| Sequence | Multipolar level (%) [1] | Multipolar level (%) (HeLa cell line (HeLa S3) [2]) | Number of multipolar cells (HeLa cell line (HeLa S3) [2]) | Multipolar level (%) (HeLa cell line (HeLa S3) [3]) | Number of multipolar cells (HeLa cell line (HeLa S3) [3]) |
| --- | --- | --- | --- | --- | --- |
| EFEYFHPATFRL [Sample 8] | 26% |  |  |  |  |
| GAVTYSRISGQY [Sample 10] | 29% |  |  |  |  |
| GPHHYWYHLRLP [Sample 4] | 28% | 13.6% | 14 | 48.3% | 29 |
| GPHLGMNQRRRP [Sample 9] | 27% | 10.4% | 11 | 55.0% | 33 |
| NMTTYPMHNNTV [Sample 6] | 32% |  |  |  |  |
| NMTTYPMHNNTVKKRTLRKNDRKKR [Sample 16] | 33% |  |  |  |  |
| QSPVNHHYHYHI [Sample 5] | 34% | 10.8% | 12 | 41.7% | 25 |
| SLLPHSNHAKHY [Sample 7] | 28% | 13.0% | 13 | 43.3% | 26 |
| SVSVGMKPSPRP [Sample 1] | 30% | 11.5% | 12 | 40.0% | 24 |
| SVSVGMKPSPRPKKRTLRKNDRKKR [Sample 11] | 32% | 12.7% | 13 | 41.7% | 25 |
| TPSLPPTMFRLT [Sample 3] | 32% |  |  |  |  |
